Results on two compounds are retold here after EP0322396A1, “Benzimidazole derivatives, their preparation and use” (Gerot-Pharmazeutika Gesellschaft m.b.H., priority 1987, dated 1989).

Series [1] can be described thus: Tolerability (test not described). Format: in vivo. Particulars: compared with the reference Prazosin.
Series [2] concerns Blutdruck der Ratte. Put plainly: Blood pressure lowering in the rat after i.v. administration. The format is in vivo. Particulars: i.v. 1,0 mg/kg, after 3 hours, compared with Nifedipin and Verapamil at the same dose.
Series [3] is described as follows: in vivo. Particulars: mouse, iv, Maus i.v.

Take `CC(O)CC(=O)N1CCC(n2c(=O)[nH]c3ccccc32)CC1` (stereo not drawn) [Beispiel 1, 1-(3-Hydroxybutyryl)-4-(2-oxo-1-benzimidazolinyl)-piperidin]: in series [1], the Verträglichkeit result was “wesentlich verträglicher als die Vergleichssubstanz”.
For the compound `COC(=O)C1=C(C)NC(C)=C(C(=O)OCCCN2CCC(n3c(=O)[nH]c4ccccc43)CC2)C1c1cccc([N+](=O)[O-])c1` (stereo not drawn) [Beispiel 4, 2,6-Dimethyl-3-{3-(4-(2-oxo-1-benzimidazolinyl)-1-piperidino]-propyloxy-carbonyl}-4-(3-nitro-phenyl)-5-methoxycarbonyl-1,4-dihydropyridin], the “senkt den Blutdruck der Ratte” value in series [2] is “noch stärker als Nifedipin oder Verapamil”. Further, the LD50 in series [3] was found to be 128 mg/kg.
